Data taken from the supplement of paper PMC10627819.

Columns and labels:
B. subtilis 168 [1] = assay: fitness (endpoint OD595 vs no drug) (fraction); higher = more growth
In short: (§1)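 At 37 °C, bacteria in TSB, LB Lennox or CY were grown in 384-well plates from a starting OD595 of 0.01. OD595 was measured every 30 min for 14 h, with the first reading used as background. Fitness is the optical density at the switch to stationary phase as a fraction of the robust mean of no-drug control wells, capped at 1.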

S. aureus DSM 20231 [2] = assay: as above
In short: as §1

S. aureus Newman [3] = assay: as above
In short: as §1

S. pneumoniae D39V [4] = assay: as above
In short: as §1

B. subtilis 168 [5] = assay: Bliss interaction score (quartile over a dose matrix) (fitness difference); higher = more antagonism (negative = synergy)
In short: (§2)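 Quartiles of the Bliss score were taken over technical, biological and donor/recipient replicates. That score is observed fitness minus the product of the single-drug fitness values, which were inferred from combination data. Fitness itself is OD595 at entry into stationary phase divided by the plate's robust no-drug mean, with a cap at 1.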

S. aureus DSM 20231 [6] = assay: as above
In short: as §2

S. aureus Newman [7] = assay: as above
In short: as §2

S. pneumoniae D39V [8] = assay: as above
In short: as §2
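Throughout, for Bliss interaction score (quartile over a dose matrix): first quartile when negative (synergy) and third quartile when positive (antagonism).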

COc1c(N2C[C@@H]3CCCN[C@@H]3C2)c(F)cc2c(=O)c(C(=O)O)cn(C3CC3)c12 [Moxifloxacin] + COc1ccc(C[C@H](N)C(=O)N[C@H]2[C@@H](O)[C@H](n3cnc4c(N(C)C)ncnc43)O[C@@H]2CO)cc1 [Puromycin]
fitness
Details | partner 0.39 µg/mL | partner 0.78 µg/mL | partner 1 µg/mL | partner 1.56 µg/mL | partner 2 µg/mL | partner 4 µg/mL
B. subtilis 168 [1], first compound 0.0312 µg/mL | 0.0423 | 0.0567 | – | 0.053 | – | –
B. subtilis 168 [1], first compound 0.0625 µg/mL | 0.0666 | 0.0602 | – | 0.0585 | – | –
B. subtilis 168 [1], first compound 0.125 µg/mL | 0.0451 | 0.045 | – | 0.0653 | – | –
B. subtilis 168 [1], first compound 2 µg/mL | 0.0227 | 0.028 | – | 0.0306 | – | –
B. subtilis 168 [1], first compound 4 µg/mL | 0.021 | 0.0248 | – | 0.0303 | – | –
B. subtilis 168 [1], first compound 8 µg/mL | 0.009 | 0.0168 | – | 0.0189 | – | –
S. aureus DSM 20231 [2], first compound 0.0075 µg/mL | 0.885 | 0.928 | – | 0.861 | – | –
S. aureus DSM 20231 [2], first compound 0.015 µg/mL | 0.789 | 0.846 | – | 0.802 | – | –
S. aureus DSM 20231 [2], first compound 0.03 µg/mL | 0.681 | 0.695 | – | 0.668 | – | –
S. aureus Newman [3], first compound 0.0075 µg/mL | 0.797 | 0.757 | – | 0.817 | – | –
S. aureus Newman [3], first compound 0.015 µg/mL | 0.673 | 0.657 | – | 0.658 | – | –
S. aureus Newman [3], first compound 0.03 µg/mL | 0.119 | 0.161 | – | 0.282 | – | –
S. pneumoniae D39V [4], first compound 0.005 µg/mL | – | – | ≥ 1 | – | ≥ 1 | 0.885
S. pneumoniae D39V [4], first compound 0.01 µg/mL | – | – | ≥ 1 | – | 0.982 | 0.88
S. pneumoniae D39V [4], first compound 0.02 µg/mL | – | – | 1 | – | 0.985 | 0.88

one replicate
Details | fitness
S. aureus DSM 20231 [2], first compound 0.0075 µg/mL, partner 3.12 µg/mL | 0.779
S. aureus DSM 20231 [2], first compound 0.0075 µg/mL, partner 6.24 µg/mL | 0.642
S. aureus DSM 20231 [2], first compound 0.015 µg/mL, partner 3.12 µg/mL | 0.787
S. aureus DSM 20231 [2], first compound 0.015 µg/mL, partner 6.24 µg/mL | 0.509
S. aureus DSM 20231 [2], first compound 0.03 µg/mL, partner 3.12 µg/mL | 0.754
S. aureus DSM 20231 [2], first compound 0.03 µg/mL, partner 6.24 µg/mL | 0.547
S. aureus DSM 20231 [2], first compound 0.06 µg/mL, partner 0.39 µg/mL | 0.676
S. aureus DSM 20231 [2], first compound 0.06 µg/mL, partner 0.78 µg/mL | 0.7
S. aureus DSM 20231 [2], first compound 0.06 µg/mL, partner 1.56 µg/mL | 0.687
S. aureus DSM 20231 [2], first compound 0.12 µg/mL, partner 0.39 µg/mL | 0.48
S. aureus DSM 20231 [2], first compound 0.12 µg/mL, partner 0.78 µg/mL | 0.482
S. aureus DSM 20231 [2], first compound 0.12 µg/mL, partner 1.56 µg/mL | 0.558
S. pneumoniae D39V [4], first compound 0.0037 µg/mL, partner 1 µg/mL | 0.502
S. pneumoniae D39V [4], first compound 0.0037 µg/mL, partner 2 µg/mL | 0.431
S. pneumoniae D39V [4], first compound 0.0037 µg/mL, partner 4 µg/mL | 0.342
S. pneumoniae D39V [4], first compound 0.0075 µg/mL, partner 1 µg/mL | 0.846
S. pneumoniae D39V [4], first compound 0.0075 µg/mL, partner 2 µg/mL | 0.82
S. pneumoniae D39V [4], first compound 0.0075 µg/mL, partner 4 µg/mL | 0.77
S. pneumoniae D39V [4], first compound 0.015 µg/mL, partner 1 µg/mL | 0.935
S. pneumoniae D39V [4], first compound 0.015 µg/mL, partner 2 µg/mL | 0.798
S. pneumoniae D39V [4], first compound 0.015 µg/mL, partner 4 µg/mL | 0.763

Details | Bliss interaction score
B. subtilis 168 [5] | -0.0157
S. aureus DSM 20231 [6] | -0.0292
S. aureus Newman [7] | 0.0443
S. pneumoniae D39V [8] | 0.101

COc1c(N2C[C@@H]3CCCN[C@@H]3C2)c(F)cc2c(=O)c(C(=O)O)cn(C3CC3)c12 [Moxifloxacin] + C[n+]1ccc(-c2cc[n+](C)cc2)cc1 [Paraquat]
fitness
Details | partner 1.25 µg/mL | partner 1.5 µg/mL | partner 2.5 µg/mL | partner 3 µg/mL | partner 5 µg/mL | partner 6 µg/mL
B. subtilis 168 [1], first compound 0.0312 µg/mL | 0.0599 | – | 0.0539 | – | 0.0449 | –
B. subtilis 168 [1], first compound 0.0625 µg/mL | 0.044 | – | 0.0467 | – | 0.0504 | –
B. subtilis 168 [1], first compound 0.125 µg/mL | 0.0395 | – | 0.0537 | – | 0.0512 | –
B. subtilis 168 [1], first compound 2 µg/mL | 0.0316 | – | 0.0333 | – | 0.0436 | –
B. subtilis 168 [1], first compound 4 µg/mL | 0.0442 | – | 0.039 | – | 0.0413 | –
B. subtilis 168 [1], first compound 8 µg/mL | 0.0139 | – | 0.0174 | – | 0.0265 | –
S. aureus DSM 20231 [2], first compound 0.0075 µg/mL | 0.818 | – | 0.831 | – | 0.824 | –
S. aureus DSM 20231 [2], first compound 0.015 µg/mL | 0.748 | – | 0.712 | – | 0.774 | –
S. aureus DSM 20231 [2], first compound 0.03 µg/mL | 0.647 | – | 0.632 | – | 0.634 | –
S. aureus Newman [3], first compound 0.0075 µg/mL | 0.706 | – | 0.73 | – | 0.727 | –
S. aureus Newman [3], first compound 0.015 µg/mL | 0.583 | – | 0.565 | – | 0.554 | –
S. aureus Newman [3], first compound 0.03 µg/mL | 0.0423 | – | 0.0559 | – | 0.0929 | –
S. pneumoniae D39V [4], first compound 0.005 µg/mL | – | 0.979 | – | 0.994 | – | 0.969
S. pneumoniae D39V [4], first compound 0.01 µg/mL | – | 0.966 | – | 0.957 | – | 0.939
S. pneumoniae D39V [4], first compound 0.02 µg/mL | – | 0.947 | – | 0.927 | – | 0.893

fitness, one replicate
Details | partner 1.25 µg/mL | partner 1.5 µg/mL | partner 2.5 µg/mL | partner 3 µg/mL | partner 5 µg/mL | partner 6 µg/mL
S. aureus DSM 20231 [2], first compound 0.06 µg/mL | 0.684 | – | 0.7 | – | 0.699 | –
S. aureus DSM 20231 [2], first compound 0.12 µg/mL | 0.456 | – | 0.456 | – | 0.451 | –
S. pneumoniae D39V [4], first compound 0.0037 µg/mL | – | 0.906 | – | 0.857 | – | 0.896
S. pneumoniae D39V [4], first compound 0.0075 µg/mL | – | 0.878 | – | 0.852 | – | 0.868
S. pneumoniae D39V [4], first compound 0.015 µg/mL | – | 0.886 | – | 0.866 | – | 0.868

Details | Bliss interaction score
B. subtilis 168 [5] | 0.0133
S. aureus DSM 20231 [6] | -0.0639
S. aureus Newman [7] | -0.0625
S. pneumoniae D39V [8] | -0.0615
